Measured values from patent US20190337924A1, “SUBSTITUTED HYDANTOIN AND THIOHYDANTOIN DERIVATIVES AS ANDROGEN RECEPTOR ANTAGONISTS” (Janssen Pharmaceutica NV, priority 2016, published 2019).
Where a name gives a salt, the structure may show the parent alone.

Columns and labels:
VCaP cells = experiment: Prostate Cancer Cell Viability Assay-VCaP; type: cell-based; settings: Homo sapiens, 120 h, 10% Charcoal Stripped Serum, 5 days, CellTiter-Glo, * n = 1
Protocol: VCaP cells were counted and seeded into black 384-well plates with clear bottoms at a concentration of 125,000 cells per mL in phenol red-free DMEM containing 10% Charcoal Stripped Serum. 16 μL of the suspension was added per well and incubated for 48 h to allow the cells to adhere. After 48 hours, a 12 point serial semilog dilution of each compound was added to the cells in 16 μL at a final concentration of 100 µM to 0.0003 μM. The compounds of Formula (I) were also run in antagonist mode using 30 pM R1881 in which 8 μL of the compound was added to the cells followed by 8 μL of R1881. After 5 days of incubation at 37° C., 16 μL Of CellTiter-Glo (Promega) was added to the cells and the relative luminescence units (RLUs) of each well determined using the Envision. The percent stimulation and % inhibition were determined for each sample and plotted using GraphPad Prism.

CC1(C)C(=O)N(c2ccc(C#N)c(C(F)(F)F)c2)C(=S)N1c1ccc(OC2CCNCC2)cc1 [Compound 1, 4-(4,4-Dimethyl-5-oxo-3-(4-(piperidin-4-yloxy)phenyl)-2-thioxoimidazolidin-1-yl)-2-(trifluoromethyl)benzonitrile]
IC50 (VCaP cells): 2.31 µM

CC1(C)C(=O)N(c2ccc(C#N)c(C(F)(F)F)c2)C(=S)N1c1ccc(OC2CCNCC2)nc1 [Compound 3, 4-(4,4-Dimethyl-5-oxo-3-(6-(piperidin-4-yloxy)pyridin-3-yl)-2-thioxoimidazolidin-1-yl)-2-(trifluoromethyl)benzonitrile hydrochloride]
IC50 (VCaP cells): 4.86 µM

CN1CCC(Oc2ccc(N3C(=S)N(c4ccc(C#N)c(C(F)(F)F)c4)C(=O)C3(C)C)cn2)CC1 [Compound 4, 4-(4,4-Dimethyl-3-(6-((1-methylpiperidin-4-yl)oxy)pyridin-3-yl)-5-oxo-2-thioxoimidazolidin-1-yl)-2-(trifluoromethyl)benzonitrile hydrochloride]
IC50 (VCaP cells): 1.66 µM

CC1(C)C(=O)N(c2ccc(C#N)c(C(F)(F)F)c2)C(=S)N1c1cnc(OC2CCNCC2)nc1 [Compound 5, 4-(4,4-Dimethyl-5-oxo-3-(2-(piperidin-4-yloxy)pyrimidin-5-yl)-2-thioxoimidazolidin-1-yl)-2-(trifluoromethyl)benzonitrile]
melting point: 239 °C
IC50 (VCaP cells): 13.2 µM

CN1CCC(Oc2ncc(N3C(=S)N(c4ccc(C#N)c(C(F)(F)F)c4)C(=O)C3(C)C)cn2)CC1 [Compound 6, 4-(4,4-Dimethyl-3-(2-((1-methylpiperidin-4-yl)oxy)pyrimidin-5-yl)-5-oxo-2-thioxoimidazolidin-1-yl)-2-(trifluoromethyl)benzonitrile]
melting point: 204.9 °C
IC50 (VCaP cells): 18.4 µM

CC1(C)C(=O)N(c2ccc(C#N)c(Cl)c2)C(=S)N1c1ccc(OC2CCNCC2)cc1 [Compound 7, 2-Chloro-4-(4,4-dimethyl-5-oxo-3-(4-(piperidin-4-yloxy)phenyl)-2-thioxoimidazolidin-1-yl)benzonitrile hydrochloride]
IC50 (VCaP cells): 1.44 µM

CN1CCC(Oc2ccc(N3C(=S)N(c4ccc(C#N)c(Cl)c4)C(=O)C3(C)C)cc2)CC1 [Compound 8, 2-Chloro-4-(4,4-dimethyl-3-(4-((1-methylpiperidin-4-yl)oxy)phenyl)-5-oxo-2-thioxoimidazolidin-1-yl)benzonitrile hydrochloride]
IC50 (VCaP cells): 3.48 µM

CC1(C)C(=O)N(c2ccc(C#N)c(Cl)c2)C(=S)N1c1ccc(OC2CCNCC2)nc1 [Compound 9, 2-Chloro-4-(4,4-dimethyl-5-oxo-3-(6-(piperidin-4-yloxy)pyridin-3-yl)-2-thioxoimidazolidin-1-yl)benzonitrile hydrochloride]
IC50 (VCaP cells): 1.68 µM

CN1CCC(Oc2ccc(N3C(=S)N(c4ccc(C#N)c(Cl)c4)C(=O)C3(C)C)cn2)CC1 [Compound 10, 2-Chloro-4-(4,4-dimethyl-3-(6-((1-methylpiperidin-4-yl)oxy)pyridin-3-yl)-5-oxo-2-thioxoimidazolidin-1-yl)benzonitrile hydrochloride]
IC50 (VCaP cells): 5.54 µM

N#Cc1ccc(N2C(=O)C3(CCC3)N(c3ccc(OC4CCNCC4)cc3)C2=S)cc1C(F)(F)F [Compound 11, 4-(8-Oxo-5-(4-(piperidin-4-yloxy)phenyl)-6-thioxo-5,7-diazaspiro[3.4]octan-7-yl)-2-(trifluoromethyl)benzonitrile]
melting point: 172.4 °C
IC50 (VCaP cells): 1.06 µM

CN1CCC(Oc2ccc(N3C(=S)N(c4ccc(C#N)c(C(F)(F)F)c4)C(=O)C34CCC4)cc2)CC1 [Compound 12, 4-(5-(4-((1-Methylpiperidin-4-yl)oxy)phenyl)-8-oxo-6-thioxo-5,7-diazaspiro[3.4]octan-7-yl)-2-(trifluoromethyl)benzonitrile]
melting point: 99.3 °C
IC50 (VCaP cells): 21 µM

N#Cc1ccc(N2C(=O)C3(CCC3)N(c3ccc(OC4CCNCC4)nc3)C2=S)cc1C(F)(F)F [Compound 13, 4-(8-Oxo-5-(6-(piperidin-4-yloxy)pyridin-3-yl)-6-thioxo-5,7-diazaspiro[3.4]octan-7-yl)-2-(trifluoromethyl)benzonitrile hydrochloride]
IC50 (VCaP cells): 0.54 µM

CN1CCC(Oc2ccc(N3C(=S)N(c4ccc(C#N)c(C(F)(F)F)c4)C(=O)C34CCC4)cn2)CC1 [Compound 14, 4-(5-(6-((1-Methylpiperidin-4-yl)oxy)pyridin-3-yl)-8-oxo-6-thioxo-5,7-diazaspiro[3.4]octan-7-yl)-2-(trifluoromethyl)benzonitrile]
IC50 (VCaP cells): 13.1 µM

N#Cc1ccc(N2C(=O)C3(CCC3)N(c3cnc(OC4CCNCC4)nc3)C2=S)cc1C(F)(F)F [Compound 15, 4-(8-Oxo-5-(2-(piperidin-4-yloxy)pyrimidin-5-yl)-6-thioxo-5,7-diazaspiro[3.4]octan-7-yl)-2-(trifluoromethyl)benzonitrile]
melting point: 137.4 °C

CN1CCC(Oc2ncc(N3C(=S)N(c4ccc(C#N)c(C(F)(F)F)c4)C(=O)C34CCC4)cn2)CC1 [Compound 16, 4-(5-(2-((1-Methylpiperidin-4-yl)oxy)pyrimidin-5-yl)-8-oxo-6-thioxo-5,7-diazaspiro[3.4]octan-7-yl)-2-(trifluoromethyl)benzonitrile]
melting point: 161.9 °C
IC50 (VCaP cells): 5.29 µM

Cc1cc(N2C(=O)C3(CCC3)N(c3ccc(OC4CCN(C)CC4)cc3)C2=S)ccc1C#N [Compound 17, 2-Methyl-4-(5-(4-((1-methylpiperidin-4-yl)oxy)phenyl)-8-oxo-6-thioxo-5,7-diazaspiro[3.4]octan-7-yl)benzonitrile]
IC50 (VCaP cells): 3.42 µM

Cc1cc(N2C(=O)C3(CCC3)N(c3ccc(OC4CCN(C)CC4)nc3)C2=S)ccc1C#N [Compound 18, 2-Methyl-4-(5-(6-((1-methylpiperidin-4-yl)oxy)pyridin-3-yl)-8-oxo-6-thioxo-5,7-diazaspiro[3.4]octan-7-yl)benzonitrile]
IC50 (VCaP cells): 12.1 µM

COc1cc(N2C(=O)C3(CCC3)N(c3ccc(OC4CCN(C)CC4)cc3)C2=S)ccc1C#N [Compound 19, 2-Methoxy-4-(5-(4-((1-methylpiperidin-4-yl)oxy)phenyl)-8-oxo-6-thioxo-5,7-diazaspiro[3.4]octan-7-yl)benzonitrile]
IC50 (VCaP cells): 9.87 µM

COc1cc(N2C(=O)C3(CCC3)N(c3ccc(OC4CCN(C)CC4)nc3)C2=S)ccc1C#N [Compound 20, 2-Methoxy-4-(5-(6-((1-methylpiperidin-4-yl)oxy)pyridin-3-yl)-8-oxo-6-thioxo-5,7-diazaspiro[3.4]octan-7-yl)benzonitrile]
IC50 (VCaP cells): 1.4 µM

N#Cc1ccc(N2C(=O)C3(CCC3)N(c3ccc(OC4CCNCC4)cc3)C2=S)cc1Cl [Compound 21, 2-Chloro-4-(8-oxo-5-(4-(piperidin-4-yloxy)phenyl)-6-thioxo-5,7-diazaspiro[3.4]octan-7-yl)benzonitrile]
melting point: 211 °C
IC50 (VCaP cells): 1.25 µM

CN1CCC(Oc2ccc(N3C(=S)N(c4ccc(C#N)c(Cl)c4)C(=O)C34CCC4)cc2)CC1 [Compound 22, 2-Chloro-4-(5-(4-((1-methylpiperidin-4-yl)oxy)phenyl)-8-oxo-6-thioxo-5,7-diazaspiro[3.4]octan-7-yl)benzonitrile]
melting point: 152.2 °C
IC50 (VCaP cells): 0.58 µM

N#Cc1ccc(N2C(=O)C3(CCC3)N(c3ccc(OC4CCNCC4)nc3)C2=S)cc1Cl [Compound 23, 2-Chloro-4-(8-oxo-5-(6-(piperidin-4-yloxy)pyridin-3-yl)-6-thioxo-5,7-diazaspiro[3.4]octan-7-yl)benzonitrile hydrochloride]
IC50 (VCaP cells): 0.54 µM
